From the supplement of paper PMC10307832

Key:
Experiment in all cases: relative viability (nuclei count vs DMSO), 5 days (fraction); higher = more cells survive
SW 1573 = tested on: SW 1573
Summary of the method: (§1)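 For relative viability, nuclei counts in treated wells were divided by those in vehicle wells. Lung cancer cell lines had been pin-tool dosed in 1536-well plates the day after seeding and cultured for 5 days, then fixed and stained in one step (final 0.05% Triton X-100, 1% formaldehyde, 1 ug/ml Hoechst) and imaged at 4×. Doses were one drug alone or a fixed anchor-drug dose plus five library-drug doses (not always all listed) in √10 steps, and values are duplicate-plate medians.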

NCI-H2228 = tested on: NCI-H2228
Summary of the method: as §1

NCI-H1915 = tested on: NCI-H1915
Summary of the method: as §1

NCI-H2342 = tested on: NCI-H2342
Summary of the method: as §1

UMC-11 = tested on: UMC-11
Summary of the method: as §1

LC-2-ad = tested on: LC-2-ad
Summary of the method: as §1

A-427 = tested on: A-427
Summary of the method: as §1

RERF-LC-KJ = tested on: RERF-LC-KJ
Summary of the method: as §1

NCI-H23 = tested on: NCI-H23
Summary of the method: as §1

HCC-366 = tested on: HCC-366
Summary of the method: as §1

NCI-H2170 = tested on: NCI-H2170
Summary of the method: as §1

NCI-H650 = tested on: NCI-H650
Summary of the method: as §1

## Cc1csc(=NC2CCCCC2)n1/N=C/c1ccc(O)c(O)c1O [MIM1] + N=C(N)NC(=N)NCCc1ccccc1 [Phenformin] (partner 250 µM)
SW 1573; first compound 0.2 µM
  relative viability: 0.377
SW 1573; first compound 0.6325 µM
  relative viability: 0.455
SW 1573; first compound 2 µM
  relative viability: 0.442
SW 1573; first compound 6.325 µM
  relative viability: 0.25
SW 1573; first compound 20 µM
  relative viability: 0.081
NCI-H2228; first compound 0.2 µM
  relative viability: 0.389
NCI-H2228; first compound 0.6325 µM
  relative viability: 0.272
NCI-H2228; first compound 2 µM
  relative viability: 0.332
NCI-H2228; first compound 6.325 µM
  relative viability: 0.145
NCI-H2228; first compound 20 µM
  relative viability: 0.0959
NCI-H1915; first compound 0.2 µM
  relative viability: 0.421
NCI-H1915; first compound 0.6325 µM
  relative viability: 0.306
NCI-H1915; first compound 2 µM
  relative viability: 0.344
NCI-H1915; first compound 6.325 µM
  relative viability: 0.295
NCI-H1915; first compound 20 µM
  relative viability: 0.22
NCI-H2342; first compound 0.2 µM
  relative viability: 0.656
NCI-H2342; first compound 0.6325 µM
  relative viability: 0.543
NCI-H2342; first compound 2 µM
  relative viability: 0.584
NCI-H2342; first compound 6.325 µM
  relative viability: 0.53
NCI-H2342; first compound 20 µM
  relative viability: 0.785
UMC-11; first compound 0.2 µM
  relative viability: 0.326
UMC-11; first compound 2 µM
  relative viability: 0.336
UMC-11; first compound 6.325 µM
  relative viability: 0.291
UMC-11; first compound 20 µM
  relative viability: 0.201
LC-2-ad; first compound 0.2 µM
  relative viability: 0.679
LC-2-ad; first compound 0.6325 µM
  relative viability: 0.502
LC-2-ad; first compound 2 µM
  relative viability: 0.537
LC-2-ad; first compound 6.325 µM
  relative viability: 0.389
LC-2-ad; first compound 20 µM
  relative viability: 0.217
A-427; first compound 0.2 µM
  relative viability: 0.35
A-427; first compound 2 µM
  relative viability: 0.361
A-427; first compound 6.325 µM
  relative viability: 0.244
A-427; first compound 20 µM
  relative viability: 0.137
RERF-LC-KJ; first compound 0.2 µM
  relative viability: 0.447
RERF-LC-KJ; first compound 0.6325 µM
  relative viability: 0.414
RERF-LC-KJ; first compound 2 µM
  relative viability: 0.348
RERF-LC-KJ; first compound 6.325 µM
  relative viability: 0.353
RERF-LC-KJ; first compound 20 µM
  relative viability: 0.303
NCI-H23; first compound 0.2 µM
  relative viability: 0.809
NCI-H23; first compound 2 µM
  relative viability: 0.711
NCI-H23; first compound 6.325 µM
  relative viability: 0.598
NCI-H23; first compound 20 µM
  relative viability: 0.2
HCC-366; first compound 0.2 µM
  relative viability: 0.598
HCC-366; first compound 2 µM
  relative viability: 0.574
HCC-366; first compound 6.325 µM
  relative viability: 0.357
HCC-366; first compound 20 µM
  relative viability: 0.0831
NCI-H2170; first compound 0.2 µM
  relative viability: 0.407
NCI-H2170; first compound 0.6325 µM
  relative viability: 0.406
NCI-H2170; first compound 2 µM
  relative viability: 0.414
NCI-H2170; first compound 6.325 µM
  relative viability: 0.264
NCI-H2170; first compound 20 µM
  relative viability: 0.172
NCI-H650; first compound 0.2 µM
  relative viability: 0.477
NCI-H650; first compound 0.6325 µM
  relative viability: 0.389
NCI-H650; first compound 2 µM
  relative viability: 0.474
NCI-H650; first compound 6.325 µM
  relative viability: 0.412
